Source: paper PMC7497249, “Synthesis and Biological Screening of New Lawson Derivatives as Selective Substrate‐Based Inhibitors of Cytochrome bo3 Ubiquinol Oxidase from Escherichia coli” (Chemmedchem, 2020)
“And” between values parts separate entries of the source, which are not always exact repeats. Equal values may be shown once. Read-outs that look alike come from different tables or passages of the source.

Columns and labels:
[1] = absorbance-based thermodynamic equilibrium solubility assay; type: physicochemical; conditions: buffer 20 mM NaPi, 50 mM NaCl, 0.02 % DDM, pH 8.0, room temperature; for solubility at 1 day: sodium phosphate buffer
Procedure: To meet the requirements for further functional investigations, the solubilities of the HNQ compounds were determined by an absorbance‐based thermodynamic equilibrium solubility assay.36 As shown in Scheme 3a, plotting absorbance over concentration at the wavelength of the maximum peak of the absorbance spectra, (HNQ‐2 at λ=274 nm), provides a saturation point at 1.26±0.03 mM (solubility graphs for all HNQ compounds are shown in Figure S37). […]. Therefore, all twelve HNQ compounds are feasible for further functional studies.
Solubility assay: Thermodynamic equilibrium solubility of HNQ compounds was determined in sodium phosphate buffer containing 20 mM NaPi, 50 mM NaCl, 0.02 % DDM at pH 8.0. All steps were performed at room temperature following the method by Bharate and Vishwakarma.36 Measurements were done in triplicates. HNQ compounds were dissolved in a particular amount of methanol or CH2Cl2 (HNQ‐9) needed for complete dissolving. Required volumes of these methanol stock solutions were transferred in 1.5 mL reaction tubes (0.1–600 μL dependent on compound and stock concentration) to get a concentration row. After 24–48 h complete evaporation of methanol or CH2Cl2 was accomplished. Remaining solid compounds were dissolved by adding 100/200 μL of sodium phosphate buffer to the reaction tubes, which were shaken at 200 rpm for one day for equilibration. Next day, centrifugation of the reaction tubes for 30 min at 13 000 rpm at 11000 g. 50/100 μL of supernatant were pipetted into a 96‐well plate (UV‐Star, Greiner), and absorbance spectra were recorded for each well with a TECAN Spark plate reader (Tecan Trading AG, Switzerland). By plotting absorbance at λ max against concentration [mM] of the compound, saturation point of graph indicates the thermodynamic equilibrium solubility. Data analysis and visualization with SigmaPlot Pro 12.5 (Systat Software GmbH, Germany).

[2] = molecular target: T1, purified E. coli cyt bd-I oxidase (Escherichia coli, UniProt P0ABJ9); test: biochemical; conditions: for remaining activity at 250 µM: read-out: Residual activity for oxygen reduction, Cytochrome bd-I
T1 construct: made in house; host or cells: E. coli C43(DE3) Δbo3 with plasmid pet17b-cydABX-StrepII
Procedure: (§1) The inhibitory effect of a set of HNQs was screened in micromolar range to identify selective cyt bo3 and cyt bd‐I inhibitors. Oxygen reduction was measured via a Clark‐type electrode. Turnover rates of cyt bo3 and bd‐I experiments are presented as relative activities (Figure 1). For experimental overview and further information see Supporting Information (Figures S38–S40), Tables S2–3). Activity of cyt bo 3 was strongly (>50 %) reduced by HNQ‐1, ‐2, ‐6, ‐7 and ‐12. […]. Overall, the E. coli bd‐I‐type oxidase was less sensitive to the majority of examined compounds. […]; HNQ‐12: 56 %).
(§2) Figure 1 Screening of the inhibition potentials of tested hydroxynaphthoquinones (HNQ) on the oxidase reduction activity of purified E. coli cytbo3 (white) and bd‐I (light gray) oxidase. Inhibition assay using HNQs at 250 μM in the presence of 200 μM ubiquinone‐1 and 5 mM dithiothreitol. Oxygen reduction activity was calculated from oxygen consumption rates at 30 nM enzyme concentration at RT for each experiment. 100 % activity=adding corresponding volume of EtOH. KCN (20 μM) and HQNO (250 μM) represent positive inhibition controls for cyt bo3. The data are mean values of three independent experiments ± standard deviation.
(§3) Oxygen reductase activity measurements: Oxygen reductase activity was measured as oxygen consumption rate of purified protein by an OX‐MR Clark‐type oxygen electrode linked to a PA 2000 picoammeter and to an ADC‐216 for analog to digital conversion. Recording of data with SensorTrace Basic 2.1 software (all Unisense, Denmark).
(§4) Measurements were performed at room temperature in stirred 2 mL – glass vials with a total reaction volume of 600 μL. Oxygen consumption was initiated by adding 30 nM of the respective enzyme to the equilibrated mixture containing 20 mM NaPi (pH 8.0), 50 mM NaCl, 0.02 % DDM, 5 mM dithiothreitol (DTT) and 200 μM Ubiquinone‐1 (2,3‐dimethoxy‐5‐methyl‐6‐(3‐methylbut‐2‐en‐1‐yl)‐1,4‐benzoquinone). Equilibration was done for 10 min prior to enzyme addition. Inhibition experiments with 250 μM of respective HNQ from 20 mM stock solution in EtOH before equilibration. Data analysis and visualization with Origin Lab Pro 9.5 (Additive GmbH, Germany). HQNO (2‐heptyl‐4‐quinolinol 1‐oxide) was purchased from biomol GmbH, Hamburg. Determination of apparent k i (k i ^app) was performed under the same conditions but with a range of inhibitor concentrations from 1000 μM to 0.2 μM. The k i ^app value was adopted as the EC50 from the sigmoidal DoseResp Fit. Further information can be found in Figures S40–S43.

[3] = molecular target: T2, purified E. coli cyt bo3 oxidase (Escherichia coli, UniProt P0ABI8); test: biochemical; conditions: for inhibition at 250 µM: read-out: inhibition (reduction) of cyt bo3 activity; for remaining activity at 250 µM: read-out: Residual activity for oxygen reduction, Cytochrome bo3
T2 construct: made in house; host or cells: E. coli strain GO195 with plasmid pIRHisA
Procedure: as §1, §2, §3, §4

cyt bo3 = molecular target: T3, cyt bo3 (Escherichia coli, UniProt P0ABI8); conditions: steady state kinetic experiments; read-out: kiapp; cited from earlier work
T3 construct: made in house; host or cells: E. coli strain GO195 with plasmid pIRHisA

[4] = aqueous with cosolvent or surfactant or cyclodextrin, thermodynamic from solid
[5] = inhibitor 250 µM, 200 μM ubiquinone-1, 5 mM DTT, 30 nM enzyme, RT, mean of three ± SD, 100 % = EtOH
[6] = HNQ 250 μM, 200 μM ubiquinone-1
[7] = inhibitor 250 µM, 200 μM ubiquinone-1, 5 mM DTT, 30 nM enzyme, RT, mean of three ± SD, 100 % = EtOH, listed as HNQ-4

T1 sequence (P56100 whole entry): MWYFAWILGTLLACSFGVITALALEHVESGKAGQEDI
T1 sequence (P0ABJ9 whole entry): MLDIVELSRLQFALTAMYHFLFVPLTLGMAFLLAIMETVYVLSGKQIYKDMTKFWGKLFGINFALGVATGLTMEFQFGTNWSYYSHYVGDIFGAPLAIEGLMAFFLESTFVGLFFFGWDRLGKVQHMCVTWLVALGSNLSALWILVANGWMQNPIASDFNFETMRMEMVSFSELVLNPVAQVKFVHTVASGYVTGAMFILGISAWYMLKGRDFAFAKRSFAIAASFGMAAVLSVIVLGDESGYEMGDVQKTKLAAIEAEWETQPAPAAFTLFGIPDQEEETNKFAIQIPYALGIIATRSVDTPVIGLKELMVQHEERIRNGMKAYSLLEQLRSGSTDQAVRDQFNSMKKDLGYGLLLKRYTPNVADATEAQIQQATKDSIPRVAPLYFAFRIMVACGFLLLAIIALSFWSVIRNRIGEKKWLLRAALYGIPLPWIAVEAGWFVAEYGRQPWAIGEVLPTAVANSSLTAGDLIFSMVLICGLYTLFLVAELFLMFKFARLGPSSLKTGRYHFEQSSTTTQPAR
T1 sequence (P0ABK2 whole entry, further chain): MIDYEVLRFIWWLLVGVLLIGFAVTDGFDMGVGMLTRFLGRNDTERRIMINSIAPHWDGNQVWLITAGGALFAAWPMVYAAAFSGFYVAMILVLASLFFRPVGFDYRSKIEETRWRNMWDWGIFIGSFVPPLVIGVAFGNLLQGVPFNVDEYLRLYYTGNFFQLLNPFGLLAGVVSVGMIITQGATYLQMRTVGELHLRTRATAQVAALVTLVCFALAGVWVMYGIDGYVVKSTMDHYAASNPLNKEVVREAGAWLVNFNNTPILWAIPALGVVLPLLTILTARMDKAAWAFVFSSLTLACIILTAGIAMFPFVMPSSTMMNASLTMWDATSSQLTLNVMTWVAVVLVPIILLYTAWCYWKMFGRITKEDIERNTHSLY
T2 sequence (P0ABJ1 25-315): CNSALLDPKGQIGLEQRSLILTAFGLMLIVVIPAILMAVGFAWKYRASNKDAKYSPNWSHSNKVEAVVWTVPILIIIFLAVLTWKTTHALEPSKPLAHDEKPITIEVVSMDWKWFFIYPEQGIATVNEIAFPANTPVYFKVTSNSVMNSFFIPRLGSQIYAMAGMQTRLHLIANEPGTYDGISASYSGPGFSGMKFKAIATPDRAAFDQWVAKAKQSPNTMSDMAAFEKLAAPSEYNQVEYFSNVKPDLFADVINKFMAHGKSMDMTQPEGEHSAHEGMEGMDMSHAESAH
T2 sequence (P0ABJ3 whole entry, further chain): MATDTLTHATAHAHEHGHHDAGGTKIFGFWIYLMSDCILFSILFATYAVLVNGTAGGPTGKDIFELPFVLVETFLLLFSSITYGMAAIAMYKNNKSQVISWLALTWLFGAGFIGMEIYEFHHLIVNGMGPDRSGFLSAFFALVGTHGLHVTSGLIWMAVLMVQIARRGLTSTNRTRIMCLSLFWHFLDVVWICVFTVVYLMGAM
T2 sequence (P0ABI8 whole entry): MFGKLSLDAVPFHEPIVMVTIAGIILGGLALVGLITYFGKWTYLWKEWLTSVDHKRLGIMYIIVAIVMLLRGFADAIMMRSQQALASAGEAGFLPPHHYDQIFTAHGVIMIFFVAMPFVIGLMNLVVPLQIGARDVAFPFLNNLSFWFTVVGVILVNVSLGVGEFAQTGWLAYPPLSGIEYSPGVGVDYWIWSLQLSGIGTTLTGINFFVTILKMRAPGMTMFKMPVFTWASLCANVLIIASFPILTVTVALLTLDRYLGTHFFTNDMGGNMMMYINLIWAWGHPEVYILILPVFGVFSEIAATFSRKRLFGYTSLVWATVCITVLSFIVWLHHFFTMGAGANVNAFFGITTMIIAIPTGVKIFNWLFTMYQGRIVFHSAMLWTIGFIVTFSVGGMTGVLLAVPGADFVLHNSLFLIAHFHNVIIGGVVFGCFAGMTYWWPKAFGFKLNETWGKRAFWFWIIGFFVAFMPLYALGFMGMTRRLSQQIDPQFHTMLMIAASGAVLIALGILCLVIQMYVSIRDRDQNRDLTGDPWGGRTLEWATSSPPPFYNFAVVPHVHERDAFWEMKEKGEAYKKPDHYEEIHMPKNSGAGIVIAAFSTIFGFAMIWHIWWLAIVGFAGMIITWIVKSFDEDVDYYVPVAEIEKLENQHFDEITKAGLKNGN
T2 sequence (P0ABJ6 whole entry, further chain): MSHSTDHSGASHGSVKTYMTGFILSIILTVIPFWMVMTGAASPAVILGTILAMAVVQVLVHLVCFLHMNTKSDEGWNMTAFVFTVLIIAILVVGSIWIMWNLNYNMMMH
T3 sequence (P0ABJ1 25-315): as the sequence (P0ABJ1 25-315) above
T3 sequence (P0ABI8 whole entry): as the sequence (P0ABI8 whole entry) above
T3 sequence (P0ABJ3 whole entry, further chain): as the sequence (P0ABJ3 whole entry, further chain) above
T3 sequence (P0ABJ6 whole entry, further chain): as the sequence (P0ABJ6 whole entry, further chain) above

| Compound | solubility at 1 day [1, 4] | remaining activity at 250 µM [2, 5] | inhibition at 250 µM [3, 6] | Residual activity for oxygen reduction, Cytochrome bo3 [3, 5] | remaining activity at 250 µM [3, 5] | inhibitory effect on cyt bd-I oxidase [2, 6] | inhibitory effect on cyt bd-I activity (in words) ([2]; HNQ 250 μM) | inhibitory effect on cyt bo3 activity (in words) ([3]; HNQ 250 μM) | also measured |
| --- | --- | --- | --- | --- | --- | --- | --- | --- | --- |
| COc1cc(CC2=C(O)C(=O)c3ccccc3C2=O)ccc1O [HNQ‐7, 2‐Hydroxy‐3‐[(4‐hydroxy‐3‐methoxyphenyl)methyl]‐1,4‐naphthoquinone] | > 2680 µg/mL and > 8300 µM | 106 ± 7% | > 50% | < 50% | 49.5 ± 7% | – | – | – | – |
| 2‐Hydroxy‐3‐[(ferreocenyl)methyl]‐1,4‐naphthoquinone [HNQ‐9] | – | – | – | – | – | – | – | – | Solubility [1]: >8.3 mM; Residual activity for oxygen reduction, Cytochrome bd-I [2]: 110 ± 17%; inhibitory effect on cyt bd-I oxidase [2]: < 30%; Residual activity for oxygen reduction, Cytochrome bo3 [3]: 84.4 ± 17%; inhibition (reduction) of cyt bo3 activity [3]: < 30% |
| 2‐Hydroxy‐3‐[(4‐phenoxybenzyl)methyl]‐1,4‐naphthoquinone [HNQ‐12] | – | – | – | 13.1 ± 7% | – | 56% | – | – | Solubility [1]: 1640±94 μg/mL and 4.6±0.3 mM; Residual activity for oxygen reduction, Cytochrome bd-I [2, 5]: 43.8 ± 7%; inhibition (reduction) of cyt bo3 activity [3, 6]: > 50% |
| O=C1C(O)=C(Cc2c[nH]c3ncccc23)C(=O)c2ccccc21 [HNQ‐8, 2‐Hydroxy‐3‐[(1H‐pyrrolo(2,3‐b)pyridine‐3‐yl)methyl]‐1,4‐naphthoquinone] | > 3140 µg/mL and > 10300 µM | 106 ± 5% | – | – | 101 ± 5% | < 30% | could not show an influence | could not show an influence | – |
| 2‐Hydroxy‐3‐[(3,5‐dihydroxybenzyl)methyl]‐1,4‐naphthoquinone [HNQ‐10] | – | – | – | 69.1 ± 8% | – | – | – | – | Solubility [1]: 840±151 μg/mL and 2.1±0.4 mM; Residual activity for oxygen reduction, Cytochrome bd-I [2, 5]: 107 ± 8%; inhibition (reduction) of cyt bo3 activity [3, 6]: 31% |
| O=C1C(O)=C(Cc2ccc3c(c2)OCO3)C(=O)c2ccccc21 [HNQ‐6, 2‐Hydroxy‐3‐[(1,2‐methylenedioxybenz‐5 yl)methyl]‐1,4‐naphthoquinone] | 400 µg/mL and 780 µM | 109 ± 13% | > 50% | < 30% | 27.3 ± 13% | – | – | – | – |
| O=C1C(O)=C(Cc2ccc3[nH]ncc3c2)C(=O)c2ccccc21 [HNQ‐5, 2‐Hydroxy‐3‐[(indazol‐5‐yl)methyl]‐1,4‐naphthoquinone] | 1670 µg/mL and 5500 µM | 117 ± 7% | 40% | – | 59.9 ± 7% | – | – | – | – |
| CN(C)c1ccc(CC2=C(O)C(=O)c3ccccc3C2=O)cc1 [HNQ‐4, 2‐Hydroxy‐3‐methylen‐(4‐N,N ‐dimethylanilid)‐1,4 naphthoquinone] | 267 µg/mL and 870 µM | – | < 30% | 15% | – | < 30% | – | – | Residual activity for oxygen reduction, Cytochrome bd-I [2, 5]: 15%; Residual activity for oxygen reduction, Cytochrome bd-I [2, 7]: 84.2 ± 11%; Residual activity for oxygen reduction, Cytochrome bo3 [3, 7]: 84.8 ± 11% |
| O=C1C(O)=C(Cc2ccccc2)C(=O)c2ccccc21 [HNQ‐2, 2‐Hydroxy‐3‐methylene‐(benzyl)‐1,4‐naphthoquinone] | – | 107 ± 6% | > 50% | – | 21.8 ± 6% | – | not influencing | strong inhibitory effect | Solubility ([1]; aqueous with cosolvent or surfactant or cyclodextrin, thermodynamic from solid, read-out: Solubility): 334 µg/mL and 1260 µM |
| CCCCCCCCCCCCCC1=C(O)C(=O)c2ccccc2C1=O [HNQ‐1, 2‐Hydroxy‐3‐tridecyl‐1,4‐naphthoquinone] | 335 µg/mL and 1020 µM | 70.2 ± 12% | > 50% | – | 2.64 ± 12% | 30% | – | – | – |
| O=C1C(O)=C(C(c2nc3ccccc3s2)N2CCC[C@H]2C(=O)O)C(=O)c2ccccc21 (stereo partly drawn) [HNQ‐11, 2‐Hydroxy‐3‐[(2‐thiazol(2‐3)benzyl)methyl)pyrrolidine‐2‐carboxylic acid‐1,4‐naphthoquinone] | 800 µg/mL and 1840 µM | 111 ± 13% | < 30% | – | 115 ± 13% | < 30% | could not show an influence | could not show an influence | – |
| O=C1C(O)=C(Cc2ccncc2)C(=O)c2ccccc21 [HNQ‐3, 2‐Hydroxy‐3‐methylen‐(4‐N‐pyridyl)‐1,4‐naphthoquinone] | 627 µg/mL and 2360 µM | 110 ± 12% | < 30% | – | 99.5 ± 12% | < 30% | activity remains unaffected | activity remains unaffected | – |
| CCCCCCCc1cc(O)c2ccccc2[n+]1[O-] [HQNO, 2‐heptyl‐4‐quinolinol 1‐oxide, reference compound] | – | 9.05 ± 1% | – | – | 4.42 ± 6% | – | – | – | Ki (cyt bo3): 700 nM |
